# Assay results published in PubChem BioAssay (NCI).
#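 Values below derive from 48-hour exposures of cells grown in 96-well plates, with endpoints linearly interpolated between the two concentrations bracketing the appropriate inhibition level. The concentration for 50% growth inhibition is given as GI50. Definition used: TGI = concentration required for complete inhibition of growth.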
# Assays:
# Experiment in all cases: NCI tumour cell line growth inhibition, 48 h
# [1] = tested on: U251 CNS
# [2] = tested on: OVCAR-4 ovarian
# [3] = tested on: 786-0 renal
# [4] = tested on: LOX IMVI melanoma
# [5] = tested on: M14 melanoma
# [6] = tested on: COLO 205 colon
# [7] = tested on: RXF 393 renal
# [8] = tested on: KM12 colon
# [9] = tested on: SNB-19 CNS
# [10] = tested on: DU-145 prostate
# [11] = tested on: MOLT-4 leukemia
# [12] = tested on: MCF7 breast
# [13] = tested on: IGROV1 ovarian
# [14] = tested on: HT29 colon
# [15] = tested on: SK-MEL-28 melanoma
# [16] = tested on: UACC-62 melanoma
# [17] = tested on: SN12C renal
# [18] = tested on: HCT-116 colon
# [19] = tested on: SW-620 colon
# [20] = tested on: A549 NSCLC
# [21] = tested on: OVCAR-8 ovarian
# [22] = tested on: HOP-62 NSCLC
# [23] = tested on: OVCAR-3 ovarian
# [24] = tested on: EKVX NSCLC
# [25] = tested on: UO-31 renal
# [26] = tested on: HS 578T breast
# [27] = tested on: OVCAR-5 ovarian
# [28] = tested on: CAKI-1 renal
# [29] = tested on: T-47D breast
# [30] = tested on: ACHN renal
# [31] = tested on: TK-10 renal
# [32] = tested on: SF-268 CNS
# [33] = tested on: SR leukemia
# [34] = tested on: BT-549 breast
# [35] = tested on: HL-60(TB) leukemia
# [36] = tested on: K-562 leukemia
# [37] = tested on: NCI-H460 lung
# [38] = tested on: SF-295 CNS
# [39] = tested on: SK-MEL-5 melanoma
# [40] = tested on: MDA-MB-435
# [41] = tested on: SK-MEL-2 melanoma
# [42] = tested on: SK-OV-3 ovarian
# [43] = tested on: NCI-H522 lung
# [44] = tested on: PC-3 prostate
# [45] = tested on: NCI-H23 lung
# [46] = tested on: UACC-257 melanoma
# [47] = tested on: NCI/ADR-RES ovarian
# [48] = tested on: RPMI-8226 leukemia
# [49] = tested on: HOP-92 NSCLC
# [50] = tested on: HCT-15 colon
# [51] = tested on: SNB-75 CNS
# [52] = tested on: SF-539 CNS
# [53] = tested on: NCI-H226 lung
# [54] = tested on: MALME-3M melanoma
# [55] = tested on: HCC-2998 colon
# [56] = tested on: CCRF-CEM leukemia
# [57] = tested on: A498 renal
# [58] = tested on: MDA-MB-231 breast
smiles,measurement,setting,value
CCOC(=O)[C@H]1O[C@@H]1C(=O)N[C@@H](CC(C)C)C(=O)NCCc1ccc(O)cc1,GI50,[1],> 100 µM
same,TGI,[1],> 100 µM
same,GI50,[2],> 100 µM
same,TGI,[2],> 100 µM
same,GI50,[3],> 100 µM
same,TGI,[3],> 100 µM
same,GI50,[4],> 100 µM
same,TGI,[4],> 100 µM
same,GI50,[5],> 100 µM
same,TGI,[5],> 100 µM
same,GI50,[6],> 100 µM
same,TGI,[6],> 100 µM
same,GI50,[7],> 100 µM
same,TGI,[7],> 100 µM
same,GI50,[8],> 100 µM
same,TGI,[8],> 100 µM
same,GI50,[9],> 100 µM
same,TGI,[9],> 100 µM
same,GI50,[10],> 100 µM
same,TGI,[10],> 100 µM
same,GI50,[11],> 100 µM
same,TGI,[11],> 100 µM
same,GI50,[12],> 100 µM
same,TGI,[12],> 100 µM
same,GI50,[13],> 100 µM
same,TGI,[13],> 100 µM
same,GI50,[14],> 100 µM
same,TGI,[14],> 100 µM
same,GI50,[15],> 100 µM
same,TGI,[15],> 100 µM
same,GI50,[16],> 100 µM
same,TGI,[16],> 100 µM
same,GI50,[17],> 100 µM
same,TGI,[17],> 100 µM
same,GI50,[18],> 100 µM
same,TGI,[18],> 100 µM
same,GI50,[19],> 100 µM
same,TGI,[19],> 100 µM
same,GI50,[20],> 100 µM
same,TGI,[20],> 100 µM
same,GI50,[21],> 100 µM
same,TGI,[21],> 100 µM
same,GI50,[22],> 100 µM
same,TGI,[22],> 100 µM
same,GI50,[23],> 100 µM
same,TGI,[23],> 100 µM
same,GI50,[24],> 100 µM
same,TGI,[24],> 100 µM
same,GI50,[25],> 100 µM
same,TGI,[25],> 100 µM
same,GI50,[26],> 100 µM
same,TGI,[26],> 100 µM
same,GI50,[27],> 100 µM
same,TGI,[27],> 100 µM
same,GI50,[28],> 100 µM
same,TGI,[28],> 100 µM
same,GI50,[29],> 100 µM
same,TGI,[29],> 100 µM
same,GI50,[30],> 100 µM
same,TGI,[30],> 100 µM
same,GI50,[31],> 100 µM
same,TGI,[31],> 100 µM
same,GI50,[32],> 100 µM
same,TGI,[32],> 100 µM
same,GI50,[33],41 µM
same,TGI,[33],> 100 µM
same,GI50,[34],> 100 µM
same,TGI,[34],> 100 µM
same,GI50,[35],> 100 µM
same,TGI,[35],> 100 µM
same,GI50,[36],48.4 µM
same,TGI,[36],> 100 µM
same,GI50,[37],> 100 µM
same,TGI,[37],> 100 µM
same,GI50,[38],> 100 µM
same,TGI,[38],> 100 µM
same,GI50,[39],> 100 µM
same,TGI,[39],> 100 µM
same,GI50,[40],> 100 µM
same,TGI,[40],> 100 µM
same,GI50,[41],> 100 µM
same,TGI,[41],> 100 µM
same,GI50,[42],> 100 µM
same,TGI,[42],> 100 µM
same,GI50,[43],> 100 µM
same,TGI,[43],> 100 µM
same,GI50,[44],> 100 µM
same,TGI,[44],> 100 µM
same,GI50,[45],> 100 µM
same,TGI,[45],> 100 µM
same,GI50,[46],> 100 µM
same,TGI,[46],> 100 µM
same,GI50,[47],> 100 µM
same,TGI,[47],> 100 µM
same,GI50,[48],> 100 µM
same,TGI,[48],> 100 µM
same,GI50,[49],> 100 µM
same,TGI,[49],> 100 µM
same,GI50,[50],> 100 µM
same,TGI,[50],> 100 µM
same,GI50,[51],> 100 µM
same,TGI,[51],> 100 µM
same,GI50,[52],> 100 µM
same,TGI,[52],> 100 µM
same,GI50,[53],> 100 µM
same,TGI,[53],> 100 µM
COc1ccc2[nH]c(-c3ccccc3)c(/C=C(\C#N)S(=O)(=O)c3ccccc3)c2c1,GI50,[1],4.59 µM
same,TGI,[1],> 100 µM
same,GI50,[2],8.33 µM
same,TGI,[2],> 100 µM
same,GI50,[3],6.07 µM
same,TGI,[3],> 100 µM
same,GI50,[4],7.4 µM
same,TGI,[4],> 100 µM
same,GI50,[5],3.72 µM
same,TGI,[5],> 100 µM
same,GI50,[6],7.35 µM
same,TGI,[6],> 100 µM
same,GI50,[8],2.96 µM
same,TGI,[8],> 100 µM
same,GI50,[9],13.5 µM
same,TGI,[9],> 100 µM
same,GI50,[10],10.1 µM
same,TGI,[10],> 100 µM
same,GI50,[11],4.7 µM
same,TGI,[11],> 100 µM
same,GI50,[12],3.93 µM
same,TGI,[12],> 100 µM
same,GI50,[13],4.79 µM
same,TGI,[13],25.5 µM
same,GI50,[14],3.49 µM
same,TGI,[14],> 100 µM
same,GI50,[15],6.05 µM
same,TGI,[15],> 100 µM
same,GI50,[16],3.83 µM
same,TGI,[16],60.7 µM
same,GI50,[54],19.4 µM
same,TGI,[54],> 100 µM
same,GI50,[17],7.76 µM
same,TGI,[17],> 100 µM
same,GI50,[18],3.74 µM
same,TGI,[18],> 100 µM
same,GI50,[19],3.97 µM
same,TGI,[19],> 100 µM
same,GI50,[20],5.98 µM
same,TGI,[20],> 100 µM
same,GI50,[55],18.7 µM
same,TGI,[55],> 100 µM
same,GI50,[21],7.96 µM
same,TGI,[21],> 100 µM
same,GI50,[22],8.38 µM
same,TGI,[22],> 100 µM
same,GI50,[23],4.96 µM
same,TGI,[23],24.4 µM
same,GI50,[24],6.86 µM
same,TGI,[24],> 100 µM
same,GI50,[25],4.03 µM
same,TGI,[25],34.5 µM
same,GI50,[26],7.59 µM
same,TGI,[26],85.5 µM
same,GI50,[27],37.3 µM
same,TGI,[27],> 100 µM
same,GI50,[28],4.47 µM
same,TGI,[28],43.4 µM
same,GI50,[29],5.18 µM
same,TGI,[29],> 100 µM
same,GI50,[30],12.9 µM
same,TGI,[30],> 100 µM
same,GI50,[31],17.5 µM
same,TGI,[31],> 100 µM
same,GI50,[32],13.3 µM
same,TGI,[32],> 100 µM
same,GI50,[33],2.21 µM
same,TGI,[33],15.7 µM
same,GI50,[56],6.52 µM
same,TGI,[56],> 100 µM
same,GI50,[34],11.6 µM
same,TGI,[34],> 100 µM
same,GI50,[35],2.38 µM
same,TGI,[35],7.11 µM
same,GI50,[36],1.42 µM
same,TGI,[36],> 100 µM
same,GI50,[37],4.55 µM
same,TGI,[37],> 100 µM
same,GI50,[38],2.79 µM
same,TGI,[38],28.7 µM
same,GI50,[39],3.05 µM
same,TGI,[39],29.3 µM
same,GI50,[57],9.31 µM
same,TGI,[57],44.6 µM
same,GI50,[58],7.48 µM
same,TGI,[58],> 100 µM
same,GI50,[41],3.7 µM
same,TGI,[41],20.3 µM
same,GI50,[42],7.05 µM
same,TGI,[42],66.7 µM
same,GI50,[43],3.98 µM
same,TGI,[43],46.7 µM
same,GI50,[44],8.3 µM
same,TGI,[44],> 100 µM
same,GI50,[45],7.97 µM
same,TGI,[45],> 100 µM
same,GI50,[46],4.92 µM
same,TGI,[46],69 µM
same,GI50,[47],3.83 µM
same,TGI,[47],> 100 µM
same,GI50,[49],6.05 µM
same,TGI,[49],36.3 µM
same,GI50,[50],4.02 µM
same,TGI,[50],> 100 µM
same,GI50,[51],5.92 µM
same,TGI,[51],44.8 µM
same,GI50,[52],5.48 µM
same,TGI,[52],34.7 µM
same,GI50,[53],9.41 µM
same,TGI,[53],> 100 µM
